Reference: patent US10947252B2, “Inhibitors of KEAP1-Nrf2 protein-protein interaction” (Janssen Pharmaceutica NV, priority 2018, dated 2021)

Columns and labels:
[1] = system: Glo-Response ARE-luc2P HEK293 cell line; assay: ARE luciferase reporter cell-based assay; conditions: Homo sapiens, HEK293, 24 h, average of results obtained;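 also: luciferase signal tracks Nrf2 activation of the ARE once compounds disrupt KEAP1-Nrf2 binding, read with One-Glo reagent, DMSO serving as low control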
[2] = biological target: Kelch domain of human KEAP1 (321-624 aa) (Homo sapiens (Human), UniProt Q14145); assay: KEAP1 KELCH ThermoFluor binding assay; conditions: KEAP Kelch […], 1,8-ANS, pH 7.0, average of results obtained, read-out: Tf Kd;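 also: Ligand-induced melting temperature shift of E. coli-expressed KEAP1 Kelch protein, Kd estimated from concentration-response curves of ΔTm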
Sequence of Kelch domain of human KEAP1 (321-624 aa) (Q14145 321-624): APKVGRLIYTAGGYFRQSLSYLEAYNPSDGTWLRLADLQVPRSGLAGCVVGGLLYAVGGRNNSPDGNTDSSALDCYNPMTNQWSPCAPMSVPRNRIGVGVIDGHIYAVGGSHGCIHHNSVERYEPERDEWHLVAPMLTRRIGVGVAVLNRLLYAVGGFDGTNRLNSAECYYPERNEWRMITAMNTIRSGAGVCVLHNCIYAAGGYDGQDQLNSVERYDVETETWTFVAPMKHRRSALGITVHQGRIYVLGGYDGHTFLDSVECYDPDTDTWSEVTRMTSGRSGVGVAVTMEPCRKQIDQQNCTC

| Kd [2] [nM] | SMILES | EC50 [1] [nM] |
| --- | --- | --- |
| < 1 | Cc1cnc2c(c1)S(=O)(=O)N(Cc1cc([C@@H](c3ccn4c(C(F)F)nnc4c3C)C(C)(C)C(=O)O)ccc1C)CC1(COC1)O2 (single isomer, unassigned) [Example 617, (*S)-3-(3-(Difluoromethyl)-8-methyl-[1,2,4]triazolo[4,3-a]pyridin-7-yl)-2,2-dimethyl-3-(4-methyl-3-((8′-methyl-1′,1′-dioxidospiro[oxetane-3,4′-pyrido[2,3-b][1,4,5]oxathiazepin]-2′(3′H)-yl)methyl)phenyl)propanoic Acid] | 1.15 |
| 287 | Cc1cnc2c(c1)S(=O)(=O)N(Cc1cc([C@H](c3ccn4c(C(F)(F)F)nnc4c3C)C(C)(C)C(=O)O)ccc1C)CC1(CC1)O2 (single isomer, unassigned) [Example 315, (*R)-2,2-Dimethyl-3-(4-methyl-3-((8′-methyl-1′,1′-dioxidospiro[cyclopropane-1,4′-pyrido[2,3-b][1,4,5]oxathiazepin]-2′(3′H)-yl)methyl)phenyl)-3-(8-methyl-3-(trifluoromethyl)-[1,2,4]triazolo[4,3-a]pyridin-7-yl)propanoic Acid] | 148 |
| < 1 | Cc1ccc([C@@H](c2ccn3c(C(F)(F)F)nnc3c2C)C(C)(C)C(=O)O)cc1CN1CC2(CCOCC2)Oc2nc(CCC(=O)NC3CCC3)ccc2S1(=O)=O (single isomer, unassigned) [Example 605, (*S)-3-(3-((7′-(3-Cyclobutylamino-3-oxopropyl)-1′,1′-dioxido-2,3,5,6-tetrahydrospiro[pyran-4,4′-pyrido[2,3-b][1,4,5]oxathiazepin]-2′(3′H)-yl)methyl)-4-methylphenyl)-2,2-dimethyl-3-(8-methyl-3-(trifluoromethyl)-[1,2,4]triazolo[4,3-a]pyridine-7-yl)propanoic Acid] | 109 |
| < 1 | Cc1cnc2c(c1)S(=O)(=O)N(Cc1cc([C@@H](c3ccn4c(C(F)F)nnc4c3C)C(C)(C)C(=O)O)ncc1C)CC1(CC1)O2 (single isomer, unassigned) [Example 332, (*S)-3-(3-(Difluoromethyl)-8-methyl-[1,2,4]triazolo[4,3-a]pyridin-7-yl)-2,2-dimethyl-3-(5-methyl-4-((8′-methyl-1′,1′-dioxidospiro[cyclopropane-1,4′-pyrido[2,3-b][1,4,5]oxathiazepin]-2′(3′H)-yl)methyl)pyridin-2-yl)propanoic acid] | 25.6 |
| < 1 | Cc1ccc([C@@H](CC(=O)O)c2ccn3c(C(F)(F)F)nnc3c2C)cc1CN1C[C@H]2CCCN2c2ccccc2S1(=O)=O (single isomer, unassigned) [Example 267, (*R)-3-(3-(((R)-5,5-Dioxido-7a,8,9,10-tetrahydrobenzo[f]pyrrolo[2,1-d][1,2,5]thiadiazepin-6(7H)-yl)methyl)-4-methylphenyl)-3-(8-methyl-3-(trifluoromethyl)-[1,2,4]triazolo[4,3-a]pyridin-7-yl)propanoic Acid] | 90.4 |
| 41200 | CCn1nnc2c(C)c([C@H](c3cnc(C)c(CN4CC5(CCOCC5)Oc5ncccc5S4(=O)=O)c3)C(C)(C)C(=O)O)ccc21 (single isomer, unassigned) [Example 60, (*R)-3-(5-((1′,1′-Dioxido-2,3,5,6-tetrahydrospiro[pyran-4,4′-pyrido[2,3-b][1,4,5]oxathiazepin]-2′(3′H)-yl)methyl)-6-methylpyridin-3-yl)-3-(1-ethyl-4-methyl-1H-benzo[d][1,2,3]triazol-5-yl)-2,2-dimethylpropanoic Acid] | 12300 |
| < 1 | Cc1ccc([C@H](CC(=O)O)c2ccn3c(C)nnc3c2)cc1CN1C[C@H]2CCCN2c2ccccc2S1(=O)=O (single isomer, unassigned) [Example 165, (*S)-3-(3-(((R)-5,5-Dioxido-7a,8,9,10-tetrahydrobenzo[f]pyrrolo[2,1-d][1,2,5]thiadiazepin-6(7H)-yl)methyl)-4-methylphenyl)-3-(3-methyl-[1,2,4]triazolo[4,3-a]pyridin-7-yl)propanoic Acid] | 1490 |
| 3.81 | Cc1cnc2c(c1)S(=O)(=O)N(Cc1nc([C@@H](c3ccn4c(C(F)(F)F)nnc4c3C)C(C)(C)C(=O)O)ccc1C)CC1(CNC1)O2 (single isomer, unassigned) [Example 630, (*S)-2,2-Dimethyl-3-(8-methyl-3-(trifluoromethyl)-[1,2,4]triazolo[4,3-a]pyridin-7-yl)-3-(5-methyl-6-((8′-methyl-1′,1′-dioxidospiro[azetidine-3,4′-pyrido[2,3-b][1,4,5]oxathiazepin]-2′(3′H)-yl)methyl)pyridin-2-yl)propanoic Acid] | 81.8 |
| < 1 | Cc1ccc([C@H](CC(=O)O)c2ccn3c(C(F)F)nnc3c2C)cc1CN1CC2(COC2)Oc2ccccc2S1(=O)=O (single isomer, unassigned) [Example 467, (*S)-3-(3-(Difluoromethyl)-8-methyl-[1,2,4]triazolo[4,3-a]pyridin-7-yl)-3-(3-((1,1-dioxidospiro[benzo[b][1,4,5]oxathiazepine-4,3′-oxetan]-2(3H)-yl)methyl)-4-methylphenyl)propanoic Acid] | 79.3 |
| < 1 | CCc1nnc2c(C)c([C@H](CC(=O)O)c3ccc(C)c(CN4C[C@H]5CCCN5c5ncccc5S4(=O)=O)c3)ccn12 (single isomer, unassigned) [Example 283, (*R)-3-(3-(((R)-5,5-dioxido-7a,8,9,10-tetrahydropyrido[2,3-f]pyrrolo[2,1-d][1,2,5]thiadiazepin-6(7H)-yl)methyl)-4-methylphenyl)-3-(3-ethyl-8-methyl-[1,2,4]triazolo[4,3-a]pyridin-7-yl)propanoic Acid] | 4170 |
| < 1 | Cc1ccc(C(CC(=O)O)c2ccn3c(C(F)F)nnc3c2C)cc1CN1C[C@H]2CCCN2c2ncccc2S1(=O)=O (mixture of isomers) [Example 449, 3-(3-(Difluoromethyl)-8-methyl-[1,2,4]triazolo[4,3-a]pyridin-7-yl)-3-(3-(((R)-5,5-dioxido-7a,8,9,10-tetrahydropyrido[2,3-f]pyrrolo[2,1-d][1,2,5]thiadiazepin-6(7H)-yl)methyl)-4-methylphenyl)propanoic Acid] | 47.6 |
| < 1 | Cc1cnc2c(c1)S(=O)(=O)N(Cc1cc(C(c3ccc4c(nnn4C4CC4)c3C)C(C)(C)C(=O)O)cnc1C)CC1(CCOCC1)O2 (racemic) [Example 227, (R/S)-3-(1-Cyclopropyl-4-methyl-1H-benzo[d][1,2,3]triazol-5-yl)-2,2-dimethyl-3-(6-methyl-5-((8′-methyl-1′,1′-dioxido-2,3,5,6-tetrahydrospiro[pyran-4,4′-pyrido[2,3-b][1,4,5]oxathiazepin]-2′(3′H)-yl)methyl)pyridin-3-yl)propanoic Acid] | 22 |
| < 1 | CCn1nnc2c(C)c([C@@H](CC(=O)O)c3ccc(C)c(CN4C[C@@H]5CCCCN5c5ncccc5S4(=O)=O)n3)ccc21 (single isomer, unassigned) [Example 303, (*R)-3-(6-(((*S)-5,5-Dioxido-7,7a,8,9,10,11-hexahydro-6H-dipyrido[2,1-d:2′,3′-][1,2,5]thiadiazepin-6-yl)methyl)-5-methylpyridin-2-yl)-3-(1-ethyl-4-methyl-1H-benzo[d][1,2,3]triazol-5-yl)propanoic Acid] | 27.1 |
| < 1 | Cc1ccc([C@H](c2ccn3c(C(F)(F)F)nnc3c2C)C(C)(C)C(=O)O)cc1CN1CC2(CCOCC2)Oc2nc(CCC(=O)NCCO)ccc2S1(=O)=O (single isomer, unassigned) [Example 128, (*R)-3-(3-((7′-(3-((2-Hydroxyethyl)amino)-3-oxopropyl)-1′,1′-dioxido-2,3,5,6-tetrahydrospiro[pyran-4,4′-pyrido[2,3-b][1,4,5]oxathiazepin]-2′(3′H)-yl)methyl)-4-methylphenyl)-2,2-dimethyl-3-(8-methyl-3-(trifluoromethyl)-[1,2,4]triazolo[4,3-a]pyridine-7-yl)propanoic Acid] | 308 |
| < 1 | Cc1cnc([C@@H](c2ccn3c(C(F)(F)F)nnc3c2C)C(C)(C)C(=O)O)cc1CN1CC2(CCOCC2)Oc2nc(OCCN3CCCC3)c(C)cc2S1(=O)=O (single isomer, unassigned) [Example 593, (*S)-2,2-Dimethyl-3-(8-methyl-3-(trifluoromethyl)-[1,2,4]triazolo[4,3-a]pyridin-7-yl)-3-(5-methyl-4-((8′-methyl-1′,1′-dioxido-7′-(2-(pyrrolidin-1-yl)ethoxy)-2,3,5,6-tetrahydrospiro[pyran-4,4′-pyrido[2,3-b][1,4,5]oxathiazepin]-2′(3′H)-yl)methyl)pyridin-2-yl)propanoic Acid] | 89.7 |
| < 1 | CCn1nnc2c(C)c([C@@H](c3cnc(C)c(CN4CC5(CCOCC5)Oc5ncc(C)cc5S4(=O)=O)c3)C(C)(C)C(=O)O)ccc21 (single isomer, unassigned) [Example 62, (*S)-3-(1-Ethyl-4-methyl-1H-benzo[d][1,2,3]triazol-5-yl)-2,2-dimethyl-3-(6-methyl-5-((8′-methyl-1′,1′-dioxido-2,3,5,6-tetrahydrospiro[pyran-4,4′-pyrido[2,3-b][1,4,5]oxathiazepin]-2′(3′H)-yl)methyl)pyridin-3-yl)propanoic Acid] | 19.2 |
| < 1 | Cc1cnc2c(c1)S(=O)(=O)N(Cc1nc([C@@H](c3ccn4c(C(F)F)nnc4c3C)C(C)(C)C(=O)O)ccc1C)CC1(CC1)O2 (single isomer, unassigned) [Example 334, (*S)-3-(3-(Difluoromethyl)-8-methyl-[1,2,4]triazolo[4,3-a]pyridin-7-yl)-2,2-dimethyl-3-(5-methyl-6-((8′-methyl-1′,1′-dioxidospiro[cyclopropane-1,4′-pyrido[2,3-b][1,4,5]oxathiazepin]-2′(3′H)-yl)methyl)pyridin-2-yl)propanoic Acid] | 5.2 |
